Earlier results, collected in patent publication US20070281957A1, “Crystalline Forms of Levorphanol” (Mallinckrodt Inc., priority 2006, published 2007).

Key:
[1] = levorphanol free base, known physical property
[2] = levorphanol free base, known physical property; remark: listed apart in the source

Structure (SMILES): CN1CC[C@]23CCCC[C@H]2[C@H]1Cc1ccc(O)cc13 [Levorphanol, 3-Hydroxy-N-methylmorphinan]
- Water solubility (at 25° C.) [1]: 1840 µg/mL
- Vapor pressure (at 25° C.) [2]: 1.04 × 10^−6 mmHg
